Columns and labels:
aqueous solubility = format: physicochemical; settings: aqueous medium; aqueous solubility determined at about 22° C. unless otherwise specified
Description: A second property of hydrophobic drugs is that they have low aqueous solubility. […] Extremely low aqueous solubility often leads to poor or slow absorption of the drug from the fluid of the gastrointestinal tract, when the drug is dosed orally in a conventional manner. For extremely low solubility drugs, absorption generally becomes progressively more difficult as the dose (mass of drug given orally) increases. Thus, a third property of hydrophobic drugs is a very high dose (in mg) to solubility (In mg/ml) ratio (ml). By “very high dose-to-solubility ratio” is meant that the dose-to-solubility ratio may have a value of at least 1000 ml, at least 5,000 ml, or even at least 10,000 ml. The dose-to-solubility ratio may be determined by dividing the dose (in mg) by the aqueous solubility (in mg/ml).
CETP inhibitors, in particular torcetrapib, and methods for preparing such compounds are disclosed in detail in U.S. Pat. Nos. 6,197,786 and 6,313,142, in PCT Application Nos. WO 01/40190A1, WO 02/088085A2, and WO 02/088069A2, the disclosures of which are herein incorporated by reference. Torcetrapib has an unusually low solubility in aqueous environments such as the lumenal fluid of the human GI tract. The aqueous solubility of torcetrapib is less than about 0.04 μg/ml. […]

[1] = microcentrifuge dissolution test (in vitro evaluation of concentration enhancement); format: physicochemical; settings: for AUC: area under concentration-versus-time curve in PBS pH 6.5, 37° C.; for Concentration: dissolved torcetrapib in supernatant, 1000 μg/mL if all drug dissolved
Description: The solid composition of Example 1 was evaluated in vitro using a microcentrifuge dissolution test as follows. For this test, a sufficient amount of material was added to a microcentrifuge test tube so that the concentration of torcetrapib would have been 1000 μg/mL, if all of the drug had dissolved. The test was run in duplicate. The tubes were placed in a 37° C. temperature-controlled chamber, and 1.8 mL PBS at pH 6.5 and 290 mOsm/kg was added to each respective tube. The samples were quickly mixed using a vortex mixer for about 60 seconds. The samples were centrifuged at 13,000 G at 37° C. for 1 minute. The resulting supernatant solution was then sampled and diluted 1:6 (by volume) with methanol and then analyzed by HPLC. The contents of each tube were mixed on the vortex mixer and allowed to stand undisturbed at 37° C. until the next sample was taken. Samples were collected at 4, 10, 20, 40, 90, and 1200 minutes. Control 1 (C1) consisted of crystalline torcetrapib alone, and a sufficient amount of material was added so that the concentration of drug would have been 1000 μg/mL, if all of the drug had dissolved. The concentrations of drug obtained in these samples were used to determine the maximum drug concentration (“MDC90”) and the area under the concentration-versus-time curve (“AUC90”) during the initial ninety minutes.

[2] = during the initial ninety minutes, PBS pH 6.5, 37° C.

Work on `CCOC(=O)N1c2ccc(C(F)(F)F)cc2[C@@H](N(Cc2cc(C(F)(F)F)cc(C(F)(F)F)c2)C(=O)OC)C[C@H]1CC` [torcetrapib, [2R,4S]-4-[(3,5-bis-trifluoromethyl-benzyl)-methoxycarbonyl-amino]-2-ethyl-6-trifluoromethyl-3,4-dihydro-2H-quinoline-1-carboxylic acid ethyl ester] yielded a solubility (aqueous solubility) of under 0.04 µg/mL, an AUC ([1]; up to time 0 min) of 0 µg·min/mL and an AUC ([1]; up to time 4 min) of under 2 µg·min/mL. The AUC ([1]; up to time 10 min) was under 8 µg·min/mL, the AUC ([1]; up to time 20 min) was under 18 µg·min/mL and the AUC ([1]; up to time 40 min) was under 38 µg·min/mL. The AUC ([1]; up to time 90 min) was under 88 µg·min/mL, the AUC ([1]; up to time 1200 min) was <1,200 min*μg/mL and the C1200 ([1]; concentration at 1200 minutes, PBS pH 6.5, 37° C.) was under 1 µg/mL. For the same compound, the Concentration ([1]; PBS pH 6.5, 37° C., time 0 min) was 0 ng/mL, the Concentration ([1]; PBS pH 6.5, 37° C., time 4 min) was under 1000 ng/mL and the Concentration ([1]; PBS pH 6.5, 37° C., time 10 min) was under 1000 ng/mL. For the same compound, the Concentration ([1]; PBS pH 6.5, 37° C., time 20 min) was under 1000 ng/mL, the Concentration ([1]; PBS pH 6.5, 37° C., time 40 min) was under 1000 ng/mL and the Concentration ([1]; PBS pH 6.5, 37° C., time 90 min) was under 1000 ng/mL. For the same compound, the Concentration ([1]; PBS pH 6.5, 37° C., time 1200 min) was under 1000 ng/mL, the “AUC90 (area under the concentration-versus-time curve)” value [1, 2] was under 88 µg·min/mL and the “MDC90 (maximum drug concentration)” value [1, 2] was under 1 µg/mL.
